Results published in patent publication US6630494B2, “Phenyl-substituted 1,4-dihydropyridines” (Bayer Aktiengesellschaft, priority 1983, dated 2003).

Legend:
[1] = test system: DHP (PN-200 110) binding sites in rats' brain; assay: Binding affinity to DHP (PN 200-110) binding sites in rats' brain; design: species or system rat; settings: comparison of binding affinities rats' brain vs rats' heart (Ki heart / Ki brain)
Procedure: (§1) The binding affinities to PN 200-110 binding sites in rats' brains or rats' hearts are determined according to Rampe, D. R., Rutledge, A., Janis, R. A., Triggle, D. J.: Can. Journ. Physiol. Pharmacol. 65, (1987) 1452.
(§2) This selectivity exceeds that of the known cerebrally active Ca^2+-antagonistic dihydropyridines nimodipine and nicardipine. This is seen e.g. in the comparison of the binding affinities to DHP (PN-200 110) binding sites in rats' brain and rats' heart [cf. Rampe, D. R., Rutledge, A., Janis, R. A., Triggle, D. J., Can. Journ. Physiol. Pharmacol. 65 (1987), 1452].

[2] = biological target: T1, DHP (PN-200 110) binding sites in rats' heart (Rattus norvegicus, UniProt P22002); assay: Binding affinity to DHP (PN 200-110) binding sites in rats' heart; settings: PN 200-110 (DHP) binding sites
T1 construct: from tissue; host or cells: rat heart
T1 sequence (P22002 whole entry, other chains not shown): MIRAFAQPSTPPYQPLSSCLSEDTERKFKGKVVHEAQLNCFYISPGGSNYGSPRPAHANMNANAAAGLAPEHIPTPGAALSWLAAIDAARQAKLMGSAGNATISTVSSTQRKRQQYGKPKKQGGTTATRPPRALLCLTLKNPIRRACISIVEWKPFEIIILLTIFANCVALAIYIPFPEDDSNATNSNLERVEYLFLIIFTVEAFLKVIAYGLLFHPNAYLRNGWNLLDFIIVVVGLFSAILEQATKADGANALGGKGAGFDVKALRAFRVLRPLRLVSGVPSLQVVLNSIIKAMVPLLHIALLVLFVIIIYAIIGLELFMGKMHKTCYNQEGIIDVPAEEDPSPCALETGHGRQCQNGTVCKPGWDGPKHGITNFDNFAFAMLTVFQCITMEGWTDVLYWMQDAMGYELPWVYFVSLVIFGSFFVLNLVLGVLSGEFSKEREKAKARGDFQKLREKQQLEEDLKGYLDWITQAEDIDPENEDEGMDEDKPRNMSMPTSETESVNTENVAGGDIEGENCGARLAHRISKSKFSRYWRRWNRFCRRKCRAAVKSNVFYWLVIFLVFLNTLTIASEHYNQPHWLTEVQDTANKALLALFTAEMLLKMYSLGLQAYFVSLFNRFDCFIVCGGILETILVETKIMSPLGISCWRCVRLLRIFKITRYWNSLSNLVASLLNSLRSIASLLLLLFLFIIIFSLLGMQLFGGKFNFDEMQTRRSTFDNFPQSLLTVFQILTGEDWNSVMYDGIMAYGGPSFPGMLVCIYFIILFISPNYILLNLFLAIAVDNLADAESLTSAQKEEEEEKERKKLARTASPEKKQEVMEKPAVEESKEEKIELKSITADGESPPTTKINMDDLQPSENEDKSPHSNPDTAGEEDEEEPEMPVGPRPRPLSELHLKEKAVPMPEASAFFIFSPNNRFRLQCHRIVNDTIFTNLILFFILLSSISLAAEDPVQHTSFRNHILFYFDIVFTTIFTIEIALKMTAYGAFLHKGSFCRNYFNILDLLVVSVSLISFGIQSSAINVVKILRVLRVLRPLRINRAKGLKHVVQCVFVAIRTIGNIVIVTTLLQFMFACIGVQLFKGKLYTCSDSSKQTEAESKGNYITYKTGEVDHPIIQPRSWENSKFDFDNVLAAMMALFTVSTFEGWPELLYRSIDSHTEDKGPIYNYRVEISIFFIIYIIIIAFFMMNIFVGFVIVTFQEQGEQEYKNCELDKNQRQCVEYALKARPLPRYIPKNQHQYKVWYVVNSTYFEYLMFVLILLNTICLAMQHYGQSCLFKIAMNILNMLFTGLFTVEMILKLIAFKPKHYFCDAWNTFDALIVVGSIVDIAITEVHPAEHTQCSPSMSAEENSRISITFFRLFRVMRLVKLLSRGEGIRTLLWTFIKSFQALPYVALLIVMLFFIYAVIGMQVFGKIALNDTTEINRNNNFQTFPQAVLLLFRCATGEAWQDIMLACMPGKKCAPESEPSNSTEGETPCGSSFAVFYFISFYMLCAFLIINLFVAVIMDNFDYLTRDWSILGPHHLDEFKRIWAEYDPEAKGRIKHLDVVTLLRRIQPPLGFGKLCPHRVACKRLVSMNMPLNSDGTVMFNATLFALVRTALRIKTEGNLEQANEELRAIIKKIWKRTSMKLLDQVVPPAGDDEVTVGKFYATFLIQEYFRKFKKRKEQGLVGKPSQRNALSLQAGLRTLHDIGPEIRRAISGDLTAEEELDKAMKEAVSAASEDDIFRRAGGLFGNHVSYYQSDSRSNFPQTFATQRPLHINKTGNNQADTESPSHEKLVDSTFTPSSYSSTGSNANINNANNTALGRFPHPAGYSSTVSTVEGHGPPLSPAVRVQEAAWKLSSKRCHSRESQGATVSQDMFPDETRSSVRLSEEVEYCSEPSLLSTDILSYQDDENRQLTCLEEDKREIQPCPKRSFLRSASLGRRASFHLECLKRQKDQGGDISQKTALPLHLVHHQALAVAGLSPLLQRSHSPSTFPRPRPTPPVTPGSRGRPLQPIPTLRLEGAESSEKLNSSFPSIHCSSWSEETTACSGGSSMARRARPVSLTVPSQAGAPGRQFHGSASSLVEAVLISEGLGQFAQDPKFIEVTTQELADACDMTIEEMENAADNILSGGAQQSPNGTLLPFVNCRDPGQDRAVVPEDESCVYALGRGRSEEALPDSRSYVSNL
T1 sequence (P54290 25-944 partner limits assumed, other chains not shown): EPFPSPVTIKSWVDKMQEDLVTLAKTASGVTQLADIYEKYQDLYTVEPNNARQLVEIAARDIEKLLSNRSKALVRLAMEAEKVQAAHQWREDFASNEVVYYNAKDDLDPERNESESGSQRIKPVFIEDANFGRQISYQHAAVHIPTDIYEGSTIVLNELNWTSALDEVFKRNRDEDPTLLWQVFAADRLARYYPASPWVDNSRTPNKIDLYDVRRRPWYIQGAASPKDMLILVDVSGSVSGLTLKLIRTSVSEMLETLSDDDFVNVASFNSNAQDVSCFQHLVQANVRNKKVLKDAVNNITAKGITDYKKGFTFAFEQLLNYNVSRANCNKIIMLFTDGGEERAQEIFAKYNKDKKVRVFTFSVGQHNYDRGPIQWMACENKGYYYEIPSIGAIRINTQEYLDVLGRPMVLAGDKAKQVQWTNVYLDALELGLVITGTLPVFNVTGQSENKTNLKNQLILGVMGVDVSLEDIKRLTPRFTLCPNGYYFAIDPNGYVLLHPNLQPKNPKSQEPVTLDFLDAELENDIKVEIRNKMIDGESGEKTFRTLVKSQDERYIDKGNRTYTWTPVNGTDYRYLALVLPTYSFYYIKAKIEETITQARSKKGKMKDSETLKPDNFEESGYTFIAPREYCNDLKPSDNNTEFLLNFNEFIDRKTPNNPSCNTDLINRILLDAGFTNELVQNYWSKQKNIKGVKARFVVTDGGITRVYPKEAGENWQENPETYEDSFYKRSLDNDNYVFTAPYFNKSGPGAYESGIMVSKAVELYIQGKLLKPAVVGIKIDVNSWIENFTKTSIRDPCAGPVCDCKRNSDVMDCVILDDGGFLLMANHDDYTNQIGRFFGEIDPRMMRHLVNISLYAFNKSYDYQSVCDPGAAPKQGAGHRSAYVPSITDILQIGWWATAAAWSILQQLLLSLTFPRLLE
T1 sequence (P54290 945-1091 partner limits assumed, other chains not shown): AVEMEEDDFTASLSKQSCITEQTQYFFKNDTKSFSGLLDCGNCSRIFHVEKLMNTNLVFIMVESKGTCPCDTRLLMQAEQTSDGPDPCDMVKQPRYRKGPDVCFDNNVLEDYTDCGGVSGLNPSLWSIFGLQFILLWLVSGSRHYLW
Procedure: as §1, §2

melting point	Selectivity [1]	Ki [2]	Structure (SMILES)
57 to 59 °C			COCCOC(=O)C1=C(C)NC(C)=C(C(=O)OC(C)C)C1c1c(F)cccc1Cl (racemic) [Example 3, (±) isopropyl 2-methoxyethyl 4-(2-chloro-6-fluorophenyl)-1,4-dihydro-2,6-dimethylpyridine-3,5-dicarboxylate]
119 to 120 °C			COCCOC(=O)C1=C(C)NC(C)=C(C(=O)OC(C)C)C1c1c(F)cccc1F (racemic) [Example 6, (±) isopropyl 2-methoxyethyl 4-(2,6-difluorophenyl)-1,4-dihydro-2,6-dimethylpyridine-3,5-dicarboxylate]
135 to 136 °C			COCCOC(=O)C1=C(C)NC(C)=C(C(=O)OC(C)C)C1c1cccc(F)c1F (racemic) [Example 9, (±) isopropyl 2-methoxyethyl 4-(2,3-difluorophenyl)-1,4-dihydro-2,6-dimethylpyridine-3,5-dicarboxylate]
79 to 89 °C	10	72 nM	COCCOC(=O)C1=C(C)NC(C)=C(C(=O)OC(C)C)C1c1cc(Cl)ccc1Cl (racemic) [Example 12, (±) isopropyl 2-methoxyethyl 4-(2,5-dichlorophenyl)-1,4-dihydro-2,6-dimethylpyridine-3,5-dicarboxylate]
	5.7	11.3 nM	COCCOC(=O)C1=C(C)NC(C)=C(C(=O)OC(C)C)C1c1cccc(Cl)c1C#N (racemic) [Example 15, (±) isopropyl 2-methoxyethyl 4-(3-chloro-2-cyanophenyl)-1,4-dihydro-2,6-dimethylpyridine-3,5-dicarboxylate]
78 °C	3.4	28 nM	COCCOC(=O)C1=C(C)NC(C)=C(C(=O)OC(C)C)C1c1ccc(F)c(F)c1 (racemic) [Example 18]
140 to 142 °C			COCCOC(=O)C1=C(C)NC(C)=C(C(=O)OC(C)C)C1c1cccc(C(F)(F)F)c1F (racemic) [Example 27, (±) isopropyl 2-methoxyethyl 4-(2-fluoro-3-trifluoromethylphenyl)-1,4-dihydro-2,6-dimethylpyridine-3,5-dicarboxylate]
119 to 120 °C	4.7	8 nM	COCCOC(=O)C1=C(C)NC(C)=C(C(=O)OC2CCCC2)C1c1cccc(C#N)c1Cl (racemic) [Example 30, (±) cyclopentyl 2-methoxyethyl 4-(2-chloro-3-cyanophenyl)-1,4-dihydro-2,6-dimethylpyridine-3,5-dicarboxylate]
108 to 109 °C	2.2	7.9 nM	COCCOC(=O)C1=C(C)NC(C)=C(C(=O)OC(C)(C)C)C1c1cccc(C#N)c1 (racemic) [Example 33, (±) tert-butyl 2-methoxyethyl 4-(3-cyanophenyl)-1,4-dihydro-2,6-dimethylpyridine-3,5-dicarboxylate]
105 °C			COCCOC(=O)C1=C(C)NC(C)=C(C(=O)OC2CCCC2)C1c1cccc(C(F)(F)F)c1F (racemic) [Example 36, (±) cyclopentyl 2-methoxyethyl 4-(2-fluoro-3-trifluoromethylphenyl)-1,4-dihydro-2,6-dimethylpyridine-3,5-dicarboxylate]
128 °C			COCCOC(=O)C1=C(C)NC(C)=C(C(=O)OC)C1c1cccc(C(F)(F)F)c1F (racemic) [Example 39, (±) 2-methoxyethyl methyl 4-(2-fluoro-3-trifluoromethylphenyl)-1,4-dihydro-2,6-dimethylpyridine-3,5-dicarboxylate]
128 to 130 °C			COCCOC(=O)C1=C(C)NC(C)=C(C(=O)OC2CCCC2)C1c1cccc(Cl)c1C#N (racemic) [Example 46, (±) cyclopentyl 2-methoxyethyl 4-(2-cyano-3-chlorophenyl)-1,4-dihydro-2,6-dimethylpyridine-3,5-dicarboxylate]
		14 nM	COC(=O)C1=C(C)NC(C)=C(C(=O)OCCN(C)Cc2ccccc2)C1c1cccc([N+](=O)[O-])c1 (centres unmarked) [Nicardipine, nicardipine, reference compound]
		4.6 nM	COCCOC(=O)C1=C(C)NC(C)=C(C(=O)OC(C)C)C1c1cccc([N+](=O)[O-])c1 (centres unmarked) [Nimodipine, nimodipine, reference compound]
